These results are taken from ChEMBL document CHEMBL3399942, “Identification and optimization of pyridazinones as potent and selective c-Met kinase inhibitors” (Bioorg Med Chem Lett, 2015).

pIC50: −log10 of the molar value. Calls of active or inactive are those of the source. The rule behind the calls is not given here.

A short description of data set [1]: Clearance in NMRI mouse at 0.2 mg/kg, iv and 0.5 mg/kg, po by LC/MS/MS analysis. It counts as ADME, organism-based. Conditions: in vivo.
The nature of data set [2]: Oral bioavailability in NMRI mouse at 0.5 mg/kg by LC/MS/MS analysis. The data set is classed as ADME, organism-based. Conditions: in vivo.
Data set [3] deals with T1, Hepatocyte growth factor receptor (Homo sapiens, UniProt P08581). In words: Inhibition of c-Met kinase in human A549 cells assessed as inhibition of phosphorylation after 45 mins by electrochemiluminescence assay.
T1 sequence (P08581 whole entry, the tested form may be a part): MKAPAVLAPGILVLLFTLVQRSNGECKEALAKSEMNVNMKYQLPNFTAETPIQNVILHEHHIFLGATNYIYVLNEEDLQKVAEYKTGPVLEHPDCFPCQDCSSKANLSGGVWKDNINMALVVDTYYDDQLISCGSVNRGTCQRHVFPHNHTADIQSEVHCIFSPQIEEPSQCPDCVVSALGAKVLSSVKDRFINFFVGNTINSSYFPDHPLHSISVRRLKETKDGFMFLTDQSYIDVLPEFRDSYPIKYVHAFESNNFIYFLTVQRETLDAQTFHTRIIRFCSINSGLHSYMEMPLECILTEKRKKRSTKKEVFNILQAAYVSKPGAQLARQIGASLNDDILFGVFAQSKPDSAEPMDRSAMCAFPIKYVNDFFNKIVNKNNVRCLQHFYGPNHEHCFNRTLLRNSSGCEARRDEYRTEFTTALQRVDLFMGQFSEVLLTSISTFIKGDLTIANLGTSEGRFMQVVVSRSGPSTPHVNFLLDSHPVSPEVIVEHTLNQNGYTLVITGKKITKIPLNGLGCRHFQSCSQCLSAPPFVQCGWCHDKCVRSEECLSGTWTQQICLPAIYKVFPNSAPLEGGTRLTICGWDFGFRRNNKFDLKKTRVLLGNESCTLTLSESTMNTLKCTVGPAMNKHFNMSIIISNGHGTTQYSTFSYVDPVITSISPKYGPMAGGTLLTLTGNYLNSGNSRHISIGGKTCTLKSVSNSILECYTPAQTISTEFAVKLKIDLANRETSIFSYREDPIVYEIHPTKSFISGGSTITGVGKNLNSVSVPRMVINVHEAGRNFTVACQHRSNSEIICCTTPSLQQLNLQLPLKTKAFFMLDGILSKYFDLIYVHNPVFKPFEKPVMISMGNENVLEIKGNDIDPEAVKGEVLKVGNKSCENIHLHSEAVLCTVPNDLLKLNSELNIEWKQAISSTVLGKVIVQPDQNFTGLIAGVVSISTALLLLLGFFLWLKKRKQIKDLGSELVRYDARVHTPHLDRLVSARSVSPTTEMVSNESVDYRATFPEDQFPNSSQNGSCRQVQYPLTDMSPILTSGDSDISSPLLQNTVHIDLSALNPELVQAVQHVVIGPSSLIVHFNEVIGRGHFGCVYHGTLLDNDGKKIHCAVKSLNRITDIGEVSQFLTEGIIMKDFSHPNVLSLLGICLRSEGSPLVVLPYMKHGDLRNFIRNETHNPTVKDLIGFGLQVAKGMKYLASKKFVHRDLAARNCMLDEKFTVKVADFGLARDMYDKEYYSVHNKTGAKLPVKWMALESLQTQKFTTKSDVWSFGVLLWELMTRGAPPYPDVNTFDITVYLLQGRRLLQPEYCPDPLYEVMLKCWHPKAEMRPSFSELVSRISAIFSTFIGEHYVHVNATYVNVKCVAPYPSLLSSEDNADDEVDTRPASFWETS
In data set [4] the target is T1, Hepatocyte growth factor receptor. Kind of data set: Inhibition of GST-His6-tagged recombinant human c-Met kinase domain (956 to 1390) after 60 mins by anoff-chip mobility shift assay.
The target of data set [5] is T2, Phosphodiesterase 4 (Homo sapiens, UniProt P27815+Q08499+Q07343+Q08493). In words: Inhibition of PDE4 (unknown origin). The data set is classed as protein assay.
For data set [6], the target named is T3, Phosphodiesterase 3 (Homo sapiens, UniProt Q14432+Q13370). In words: Inhibition of PDE3 (unknown origin). It counts as protein assay.
Data set [7] is described as follows: Lipophilicity, log D of the compound. Particulars: octanol/water. The data set is classed as physicochemical.
Data set [8] concerns the target T2, Phosphodiesterase 4. Kind of data set: Inhibition of PDE4 (unknown origin) at 10 uM. The data set is classed as protein assay.
Data set [9] deals with T3, Phosphodiesterase 3. In words: Inhibition of PDE3 (unknown origin) at 10 uM. It counts as protein assay.
Data set [10] is described as follows: Half life in NMRI mouse at 2 mg/kg, iv after 24 hrs by LC/MS/MS analysis. The data set is classed as ADME, organism-based. More on the design: dose 2 mg/kg, route intravenous. Conditions: in vivo.
A short description of data set [11]: Cmax in beagle dog at 5 mg/kg, po after 48 hrs by LC/MS/MS analysis. The data set is classed as ADME, organism-based, Canis lupus familiaris. More on the design: dose 5 mg/kg, route oral. Conditions: in vivo.
A short description of data set [12]: Clearance in NMRI mouse at 2 mg/kg, iv after 24 hrs by LC/MS/MS analysis. It counts as ADME, organism-based. On the set-up: dose 2 mg/kg, route intravenous. Particulars: in vivo.
Data set [13] is described as follows: Plasma protein binding in human at 10 uM. It counts as ADME, cell-free. Particulars: read-out: PPB (converted).
Data set [14] can be described thus: Fraction unbound in cynomolgus monkey plasma. It counts as ADME, cell-free, Macaca fascicularis.
A short description of data set [15]: Fraction unbound in NMRI mouse plasma. It counts as ADME, cell-free.
Data set [16] in a line: Clearance in beagle dog at 2 mg/kg, iv after 48 hrs by LC/MS/MS analysis. Particulars: in vivo. On the set-up: dose 2 mg/kg, route intravenous. It counts as ADME, organism-based, Canis lupus familiaris.
For data set [17], the system named is EBC-1. In words: Antitumor activity against human EBC1 cells xenografted in CD-1 nude mouse assessed as tumor regression at 15 mg/kg, po qd administered for 5 days on and 2 days off up to 32 days. The data set is classed as functional, organism-based. On the set-up: dose 15 mg/kg. On the technique in general: Xenograft models place foreign cells or tissue in a host animal.

A short description of data set [18]: Fraction unbound in Wistar rat plasma. The data set is classed as ADME, cell-free.
Data set [19] is described as follows: Fraction unbound in beagle dog plasma. The data set is classed as ADME, cell-free, Canis lupus familiaris.
Data set [20] in a line: Oral bioavailability in cynomolgus monkey at 5 mg/kg after 72 hrs by LC/MS/MS analysis. The data set is classed as ADME, organism-based, Macaca fascicularis. Particulars: in vivo.
A short description of data set [21]: Volume of distribution at steady state in Wistar rat at 3 mg/kg, iv after 24 hrs by LC/MS/MS analysis. On the set-up: dose 3 mg/kg, route intravenous. Conditions: in vivo, read-out: Vdss. It counts as ADME, organism-based.
A short description of data set [22]: Volume of distribution at steady state in cynomolgus monkey at 2 mg/kg, iv after 72 hrs by LC/MS/MS analysis. The data set is classed as ADME, organism-based, Macaca fascicularis. More on the design: dose 2 mg/kg, route intravenous. Conditions: in vivo, read-out: Vdss.
The subject of data set [23] is Mus musculus. In words: Toxicity in CD-1 nude mouse xenografted with human EBC1 cells assessed as body weight loss at 15 mg/kg, po qd administered for 5 days on and 2 days off up to 32 days. It counts as organism-based. More on the design: dose 15 mg/kg, route oral. Conditions: in vivo.
Data set [24] is described as follows: Half life in Wistar rat at 3 mg/kg, iv after 24 hrs by LC/MS/MS analysis. The data set is classed as ADME, organism-based. More on the design: dose 3 mg/kg, route intravenous. Conditions: in vivo.
Data set [25] can be described thus: Cmax in cynomolgus monkey at 5 mg/kg, po after 72 hrs by LC/MS/MS analysis. The data set is classed as ADME, organism-based, Macaca fascicularis. On the set-up: dose 5 mg/kg, route oral. Particulars: in vivo.
The nature of data set [26]: Clearance in Wistar rat at 3 mg/kg, iv after 24 hrs by LC/MS/MS analysis. It counts as ADME, organism-based. More on the design: dose 3 mg/kg, route intravenous. Particulars: in vivo.
Data set [27] is described as follows: Plasma protein binding in human at 0.3 uM. The data set is classed as ADME, cell-free. Particulars: read-out: PPB (converted).
Data set [28] can be described thus: Oral bioavailability in Wistar rat at 6 mg/kg after 24 hrs by LC/MS/MS analysis. It counts as ADME, organism-based. Conditions: in vivo.
A short description of data set [29]: Cmax in NMRI mouse at 5 mg/kg, po after 24 hrs by LC/MS/MS analysis. It counts as ADME, organism-based. On the set-up: dose 5 mg/kg, route oral. Particulars: in vivo.
The nature of data set [30]: Toxicity in po dosed CD-1 nude mouse xenografted with human EBC1 cells administered qd for 5 days on and 2 days off up to 32 days. It counts as organism-based. Particulars: in vivo.
The nature of data set [31]: Volume of distribution at steady state in beagle dog at 2 mg/kg, iv after 48 hrs by LC/MS/MS analysis. The data set is classed as ADME, organism-based, Canis lupus familiaris. More on the design: dose 2 mg/kg, route intravenous. Particulars: in vivo, read-out: Vdss.
The nature of data set [32]: Fraction unbound in human plasma. It counts as ADME, cell-free.
The nature of data set [33]: Volume of distribution at steady state in NMRI mouse at 2 mg/kg, iv after 24 hrs by LC/MS/MS analysis. Particulars: in vivo, read-out: Vdss. On the set-up: dose 2 mg/kg, route intravenous. The data set is classed as ADME, organism-based.
Data set [34] in a line: Cmax in Wistar rat at 6 mg/kg, po after 24 hrs by LC/MS/MS analysis. The data set is classed as ADME, organism-based. More on the design: dose 6 mg/kg, route oral. Conditions: in vivo.
A short description of data set [35]: Clearance in cynomolgus monkey at 2 mg/kg, iv after 72 hrs by LC/MS/MS analysis. The data set is classed as ADME, organism-based, Macaca fascicularis. More on the design: dose 2 mg/kg, route intravenous. Particulars: in vivo.
Data set [36] in a line: Oral bioavailability in beagle dog at 5 mg/kg after 48 hrs by LC/MS/MS analysis. It counts as ADME, organism-based, Canis lupus familiaris. Conditions: in vivo.
Data set [37] in a line: Half life in beagle dog at 2 mg/kg, iv after 48 hrs by LC/MS/MS analysis. It counts as ADME, organism-based, Canis lupus familiaris. On the set-up: dose 2 mg/kg, route intravenous. Particulars: in vivo.
Data set [38] in a line: Oral bioavailability in NMRI mouse at 5 mg/kg after 24 hrs by LC/MS/MS analysis. The data set is classed as ADME, organism-based. Particulars: in vivo.
Data set [39] in a line: Half life in cynomolgus monkey at 2 mg/kg, iv after 72 hrs by LC/MS/MS analysis. The data set is classed as ADME, organism-based, Macaca fascicularis. More on the design: dose 2 mg/kg, route intravenous. Particulars: in vivo.
The nature of data set [40]: Aqueous solubility of the compound in phosphate buffer at pH 7.4. It counts as physicochemical.

Broadly, the bioavailability is the share of a dose that reaches the circulation, judged against a reference dose that is usually intravenous. By pIC50 is commonly meant −log10 of the IC50, conventionally taken in molar units. As for `N#Cc1cccc(-c2ccc(=O)n(Cc3cccc(-c4ncc(OCCN5CCOCC5)cn4)c3)n2)c1`, the clearance in data set [1] is 35 mL/min/kg. In data set [2], this compound gave a bioavailability of 35%. In addition, the results for the pIC50 in data set [3] and in data set [4] were 7.47 and 9.00, respectively.
As a reminder, the IC50 is the point on the concentration scale where inhibition reaches its midpoint. `CCN(CC)CCCOC(=O)Nc1cccc(CN2N=C(c3ccc(OC)c(OC)c3)CSC2=O)c1`: the clearance in data set [1] is 100 mL/min/kg. Further, the concentration for half-maximal inhibition (IC50) in data set [5] is reported as 63 nM; in [6], 1500 nM. The bioavailability in [2] was less than 5%. For the same compound, the results for the negative logarithm of the IC50 (pIC50) in data set [3] and in data set [4] were 5.96 and 6.40, respectively.
For orientation: logD means the decadic logarithm of the distribution of all forms, ionised or not, between an organic phase and buffer at a given pH. As to `COc1cccc(-c2ccc(=O)n(Cc3cccc(-c4ncc(OCCCN(C)C)cn4)c3)n2)c1`, the logD in data set [7] is 2.6.
A word on the inhibition: it is the share of the control response that was lost under treatment. On to `CCN(CC)CCCOC(=O)Nc1cccc(CN2N=C(c3ccc(Cl)cc3)CSC2=O)c1`, for which the values for the inhibition in data set [8] and in data set [9] were 49% and 1%, respectively. Moreover, in data set [4], the negative logarithm of the IC50 (pIC50) was 7.05.
In [1], `CN(C)CCCOc1cnc(-c2cccc(Cn3nc(-c4cccc(C#N)c4)ccc3=O)c2)nc1` had a clearance of 102 mL/min/kg. Also, in data set [7], the logD turned out to be 2.4. In data set [2], this compound gave a bioavailability of 32%.
`CN(C)CCCOc1cnc(-c2cccc(Cn3nc(-c4cc(F)cc(F)c4)ccc3=O)c2)nc1`: in data set [7], the log distribution coefficient (logD) amounted to 3.
Broadly, the half-life is how long it takes for the measured level to halve. Usually Cmax stands for the peak of the concentration-time curve. For the compound `CN1CCC(COc2cnc(-c3cccc(Cn4nc(-c5cccc(C#N)c5)ccc4=O)c3)nc2)CC1` [TEPOTINIB], the half-life in data set [10] was 2.1 h; in data set [24], 3.2 h; in data set [37], 7.6 h; in data set [39], 10 h. Further, the clearance in [1] was 60 mL/min/kg; in data set [12], 66.7 mL/min/kg; in data set [16], 55 mL/min/kg; in data set [26], 78.3 mL/min/kg; in [35], 12.2 mL/min/kg. Further, the peak concentration (Cmax) in [11] is 22.4 ng/mL; in data set [25], 55.5 ng/mL; in data set [29], 62.2 ng/mL; in [34] it was 66 ng/mL. Moreover, in data set [13], the fraction unbound at 10 µM is 0.034. Further, the fraction unbound amounted to 0.052 in data set [14]; 0.028 in data set [15]; 0.041 in data set [18]; 0.064 in [19]; 0.023 in data set [32]. The result in data set [17] was Active. Further, the bioavailability was found to be 25% in data set [20]; 34% in [2]; 55% in data set [28]; 22% in data set [36]; 41% in data set [38]. The Vd stood at 20 L/kg in data set [21], 9.6 L/kg in [22], 26 L/kg in data set [31] and 8.2 L/kg in [33]. Moreover, the Activity entry in data set [23] is recorded as “Non-toxic”. For the same compound, the fraction unbound at 0.3 µM in [27] is 0.016. Also, in [30], the MTD was 15 mg/kg.
On to `CN(C)CCCOc1cnc(-c2cccc(Cn3nc(-c4cccc(F)c4)ccc3=O)c2)nc1`, for which the log distribution coefficient (logD) in [7] stood at 2.6. Also, the negative-log IC50 (pIC50) in data set [3] is 6.85; in data set [4] it was 8.19.
Turning to `Cc1nc(-c2cccc(Cn3nc(-c4cc(F)cc(F)c4)ccc3=O)c2)no1`, the pIC50 in data set [4] was 6.10.
`CN(C)CCCOc1cnc(-c2cccc(Cn3nc(-c4cccnc4)ccc3=O)c2)nc1` showed a pH-dependent lipophilicity (logD) in data set [7] of 1.4.
As a reminder, the solubility is the dissolved amount per volume that the medium holds. For the compound `Cc1cnc(-c2cccc(Cn3nc(-c4cc(F)cc(F)c4)ccc3=O)c2)nc1`, in [40], the solubility is less than 1 µg/mL.
`CN(C)CCCOC(=O)Nc1cccc(Cn2nc(-c3cc(F)cc(F)c3)ccc2=O)c1`: the clearance in data set [1] was 51.7 mL/min/kg. Also, the bioavailability in data set [2] amounted to 30%.
With `CN(C)CCCOC(=O)Nc1cccc(Cn2nc(-c3ccc(F)cc3)ccc2=O)c1`, the values for the inhibition in data set [8] and in data set [9] were 8% and 28%, respectively.
With `CN(C)CCCOC(=O)Nc1cccc(CN2N=C(c3cc(F)cc(F)c3)CSC2=O)c1`, the clearance in data set [1] was 56.7 mL/min/kg. Moreover, in data set [2], the bioavailability was found to be 25%. Besides, the negative logarithm of the IC50 (pIC50) in data set [3] is 7.11; in data set [4], 7.64.
Consider `Cc1cnc(-c2cccc(Cn3nc(-c4cc(F)cc(F)c4)ccc3=O)c2)[nH]1`, for which the pIC50 in data set [4] was 5.28.
As for `O=C(Nc1cccc(Cn2nc(-c3cc(F)cc(F)c3)ccc2=O)c1)OCCCN1CCOCC1`, the values for the inhibition in data set [8] and in data set [9] were 19% and 8%, respectively.
